Measurements reported in US20240199647A1, “ANTI-VIRAL COMPOUNDS” (Aligos Therapeutics, Inc., priority 2022, published 2024).
Read-outs that look alike come from different tables or passages of the source.

Key:
SARS-Cov-2 3CLpro = SARS-Cov-2 3CLpro (Severe acute respiratory syndrome coronavirus 2, UniProt P0DTD1); test: biochemical; details: Table A, class symbols, read-out: SARS-Cov-2 (IC50)
[1] = system: human beta-coronavirus OC43; test: OC43 Coronavirus Assay in HeLa cells (antiviral, cytopathic effect, cell-titer-glo); type: cell-based; details: Betacoronavirus 1, OC43, HeLa, Table B; OC43 coronavirus in HeLa cells, class symbols; read-out: EC50
[2] = system: SARS-CoV-2 B.1.1.7 lineage; test: microbe, parasite or virus in culture; type: cell-based; details: Severe acute respiratory syndrome coronavirus 2, Table C, SARS-CoV-2 B.1.1.7 in A549-dual_ACE2_TMPRSS2 cells, read-out: A549-dual_ACE2_TMPRSS2 (EC50)
in vitro = details: human
[3] = Cytotoxicity in HeLa cells without addition of OC43 virus (in parallel); details: human, HeLa cells, without OC43 virus

SMILES | IC50 (SARS-Cov-2 3CLpro) | EC50 [1] | EC50 ([2]; class symbols) | CC50 (in vitro) | CC50 at 6 days [3] | EC50 ([2]; cells given as a bound)
CN(C(=O)[C@H](CC1CC1)NC(=O)C(F)(F)F)[C@@H](CC1CC1)C(=O)N1C[C@@]2(C[C@H]1C#N)Oc1ccc(F)cc1CNC2=O [Compound 167] | < 0.02 µM | < 0.1 µM | 0.1 to 1 µM | > 1 µM | > 10 µM | –
CC(C)C[C@@H](C(=O)N1C[C@]2(CC(c3ccccc3)=NNC2=O)C[C@H]1C#N)N(C)C(=O)c1cc2c(F)cc(F)c(F)c2[nH]1 [Example 30, N—((S)-1-((3S,5R)-3-cyano-6-oxo-9-phenyl-2,7,8-triazaspiro[4.5]dec-8-en-2-yl)-4-methyl-1-oxopentan-2-yl)-4,6,7-trifluoro-N-methyl-1H-indole-2-carboxamide] | < 0.02 µM | 0.1 to 1 µM | 0.1 to 1 µM | > 1 µM | > 10 µM | –
CN(C(=O)[C@H](COc1ccccc1)NC(=O)C(F)(F)F)[C@@H](CC1CC1)C(=O)N1C[C@@]2(C[C@H]1C#N)Oc1cccnc1NC2=O [Compound 202] | < 0.02 µM | 0.1 to 1 µM | – | > 1 µM | > 10 µM | > 1 µM
Cc1c(-c2ccccc2)nn2c1NC(=O)[C@]21C[C@@H](C#N)N(C(=O)[C@H](CC(C)C)N(C)C(=O)[C@H](C)NC(=O)C(F)(F)F)C1 [Compound 130] | 0.02 to 0.2 µM | 0.1 to 1 µM | 0.1 to 1 µM | > 1 µM | > 10 µM | –
CN(C(=O)[C@H](CC1CC1)N1CCOC1=O)[C@@H](CC1CC1)C(=O)N1C[C@@]2(C[C@H]1C#N)Oc1cc(F)cc(F)c1NC2=O [Compound 101] | 0.02 to 0.2 µM | < 0.1 µM | 0.1 to 1 µM | > 1 µM | > 10 µM | –
CN(C(=O)[C@H](CC1CC1)NC(=O)C(F)(F)F)[C@@H](CC1CC1)C(=O)N1C[C@@]2(C[C@H]1C#N)Oc1ccccc1C(C)(C)NC2=O [Compound 228] | 0.02 to 0.2 µM | 0.1 to 1 µM | 0.1 to 1 µM | > 1 µM | > 10 µM | –
CC(C)C[C@@H](C(=O)N1C[C@]2(C[C@H]1C#N)C(=O)Nc1ccccc1C2(F)F)N(C)C(=O)[C@H](C)NC(=O)C(F)(F)F [Example 43, (S)—N—((S)-1-((3R,5S)-5-cyano-4′,4′-difluoro-2′-oxo-1′,4′-dihydro-2′H-spiro[pyrrolidine-3,3′-quinolin]-1-yl)-4-methyl-1-oxopentan-2-yl)-N-methyl-2-(2,2,2-trifluoroacetamido)propanamide] | 0.02 to 0.2 µM | 1 to 10 µM | 0.1 to 1 µM | > 1 µM | > 10 µM | –
C[C@H](NC(=O)C(F)(F)F)C(=O)N(C)[C@@H](CC1CC1)C(=O)N1C[C@@]2(C[C@H]1C#N)Oc1ccccc1CNC2=O [Compound 163] | < 0.02 µM | < 0.1 µM | 0.1 to 1 µM | > 1 µM | > 10 µM | –
CN(C(=O)[C@H](CC1CC1)NC(=O)C(F)(F)F)[C@@H](CC1CC1)C(=O)N1C[C@@]2(C[C@H]1C#N)Oc1cccc(F)c1NC2=O [Compound 56] | < 0.02 µM | < 0.1 µM | < 0.1 µM | > 1 µM | > 10 µM | –
CN(C(=O)[C@H](CC1CC1)NC(=O)C(F)(F)F)[C@@H](CC1CC1)C(=O)N1C[C@@]2(C[C@H]1C#N)Oc1ccccc1CNC2=O [Compound 81, (S)—N—((S)-1-((2R,5'S)-5′-cyano-3-oxo-4,5-dihydro-3H-spiro[benzo[f][1,4]oxazepine-2,3′-pyrrolidin]-1′-yl)-3-cyclopropyl-1-oxopropan-2-yl)-3-cyclopropyl-N-methyl-2-(2,2,2-trifluoroacetamido)propenamide] | < 0.02 µM | < 0.1 µM | < 0.1 µM | > 1 µM | > 10 µM | –
C[C@H](NC(=O)C(F)(F)F)C(=O)N(C)[C@@H](CC1CC1)C(=O)N1C[C@@]2(C[C@H]1C#N)Oc1cc(Cl)cnc1NC2=O [Compound 147] | < 0.02 µM | < 0.1 µM | < 0.1 µM | > 1 µM | > 10 µM | –
C[C@H](NC(=O)OC1CC1)C(=O)N(C)[C@@H](CC1CC1)C(=O)N1C[C@@]2(C[C@H]1C#N)Oc1cccnc1NC2=O [Compound 219] | < 0.02 µM | < 0.1 µM | 0.1 to 1 µM | > 1 µM | > 10 µM | –
CC(C)C[C@@H](C(=O)N1C[C@@]2(C[C@H]1C#N)Oc1cc(F)cc(F)c1NC2=O)N(C)C(=O)[C@H](C)NC(=O)C1(F)CC1 [Compound 71] | < 0.02 µM | 0.1 to 1 µM | 0.1 to 1 µM | > 1 µM | > 10 µM | –
CC(C)C[C@@H](C(=O)N1C[C@@]2(C[C@H]1C#N)Oc1ccccc1NC2=O)N(C)C(=O)c1cc2c(F)cc(F)cc2[nH]1 [Example 2, N—((S)-1-((2R,5'S)-5′-cyano-3-oxo-3,4-dihydrospiro[benzo[b][1,4]oxazine-2,3′-pyrrolidin]-1′-yl)-4-methyl-1-oxopentan-2-yl)-4,6-difluoro-N-methyl-1H-indole-2-carboxamide] | < 0.02 µM | 0.1 to 1 µM | 0.1 to 1 µM | > 1 µM | > 10 µM | –
CN(C(=O)[C@@H](NC(=O)C(F)(F)F)C1CC1)[C@@H](CC1CC1)C(=O)N1C[C@@]2(C[C@H]1C#N)Oc1cc(F)cc(F)c1NC2=O [Compound 194] | < 0.02 µM | < 0.1 µM | < 0.1 µM | > 1 µM | > 10 µM | –
CC(C)C[C@@H](C(=O)N1C[C@@]2(C[C@H]1C#N)N=C(C1CC1)NC2=O)N(C)C(=O)[C@H](C)NC(=O)C(F)(F)F [Compound 16] | 0.02 to 0.2 µM | 0.1 to 1 µM | – | > 1 µM | > 10 µM | > 1 µM
CN(C(=O)[C@H](CC1CC1)NC(=O)C(F)(F)F)[C@@H](CC1CC1)C(=O)N1C[C@@]2(C[C@H]1C#N)Oc1ccc(F)cc1NC2=O [Compound 15, (S)—N—((S)-1-((2R,5'S)-5′-cyano-6-fluoro-3-oxo-3,4-dihydrospiro[benzo[b][1,4]oxazine-2,3′-pyrrolidin]-1′-yl)-3-cyclopropyl-1-oxopropan-2-yl)-3-cyclopropyl-N-methyl-2-(2,2,2-trifluoroacetamido)propanamide] | < 0.02 µM | < 0.1 µM | < 0.1 µM | > 1 µM | > 10 µM | –
Cc1ccc2c(n1)O[C@@]1(C[C@@H](C#N)N(C(=O)[C@H](CC3CC3)N(C)C(=O)[C@H](CC3CC3)NC(=O)C(F)(F)F)C1)C(=O)N2 [Compound 227, (S)—N—((S)-1-((3R,5'S)-5′-cyano-6-methyl-2-oxo-1,2-dihydrospiro[pyrido[2,3-b][1,4]oxazine-3,3′-pyrrolidin]-1′-yl)-3-cyclopropyl-1-oxopropan-2-yl)-3-cyclopropyl-N-methyl-2-(2,2,2-trifluoroacetamido)propanamide] | < 0.02 µM | < 0.1 µM | 0.1 to 1 µM | > 1 µM | > 10 µM | –
C[C@H](OCc1ccccc1)[C@H](NC(=O)C(F)(F)F)C(=O)N(C)[C@@H](CC1CC1)C(=O)N1C[C@@]2(C[C@H]1C#N)Oc1cccnc1NC2=O [Compound 192] | 0.02 to 0.2 µM | 0.1 to 1 µM | 0.1 to 1 µM | > 1 µM | > 10 µM | –
CN(C(=O)[C@H](CC1(C)CCC1)NC(=O)C(F)(F)F)[C@@H](CC1CC1)C(=O)N1C[C@@]2(C[C@H]1C#N)Oc1ncccc1NC2=O [Compound 206] | < 0.02 µM | < 0.1 µM | < 0.1 µM | > 1 µM | > 10 µM | –
CC(C)OC(=O)N[C@@H](C)C(=O)N(C)[C@@H](CC1CC1)C(=O)N1C[C@@]2(C[C@H]1C#N)Oc1cc(F)cc(F)c1NC2=O [Compound 120, isopropyl ((S)-1-(((S)-1-((2R,5'S)-5′-cyano-5,7-difluoro-3-oxo-3,4-dihydrospiro[benzo[b][1,4]oxazine-2,3′-pyrrolidin]-1′-yl)-3-cyclopropyl-1-oxopropan-2-yl)(methyl)amino)-1-oxopropan-2-yl)carbamate] | < 0.02 µM | 0.1 to 1 µM | 0.1 to 1 µM | > 1 µM | > 10 µM | –
C[C@H](NC(=O)C(F)(F)F)C(=O)N(C)[C@H](C(=O)N1C[C@@]2(C[C@H]1C#N)Oc1cc(F)cc(F)c1NC2=O)[C@@H](C)OC(C)(C)C [Compound 154] | 0.2 to 2 µM | 1 to 10 µM | – | > 1 µM | > 10 µM | > 1 µM
C[C@H](NC(=O)C(F)(F)F)C(=O)N(C)[C@@H](CC1(C)CC1)C(=O)N1C[C@@]2(C[C@H]1C#N)Oc1cccnc1NC2=O [Compound 183] | < 0.02 µM | < 0.1 µM | 0.1 to 1 µM | > 1 µM | > 10 µM | –
CN(C(=O)c1ncc(-c2ccccc2)[nH]1)[C@@H](CC1CC1)C(=O)N1C[C@@]2(C[C@H]1C#N)Oc1cccnc1NC2=O [Compound 208] | 0.02 to 0.2 µM | 0.1 to 1 µM | 0.1 to 1 µM | > 1 µM | > 10 µM | –
CC(C)C[C@](C)(NC(=O)C(F)(F)F)C(=O)N(C)[C@@H](CC1CC1)C(=O)N1C[C@@]2(C[C@H]1C#N)Oc1cc(F)cc(F)c1NC2=O [Compound 100] | 0.02 to 0.2 µM | < 0.1 µM | 0.1 to 1 µM | > 1 µM | > 10 µM | –
